Active and inactive are the calls of the source.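 Rule for the calls: active = compounds blocking PP5 with IC50 under 10 µM; inactive = the rest.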
Molecular target: Serine/threonine-protein phosphatase 5 (Homo sapiens) (UniProt P53041)
Experiment: PP5 phosphatase inhibitor potency, late-stage follow-up, selectivity assay for PP1 inhibitor project, biochemical, fluorescence, OMFP substrate, set 1 (AID 652226)
Details: purified PP5c, OMFP dephosphorylation

Serine/threonine-protein phosphatase 5 (Homo sapiens), sequence (P53041 whole entry, looked up): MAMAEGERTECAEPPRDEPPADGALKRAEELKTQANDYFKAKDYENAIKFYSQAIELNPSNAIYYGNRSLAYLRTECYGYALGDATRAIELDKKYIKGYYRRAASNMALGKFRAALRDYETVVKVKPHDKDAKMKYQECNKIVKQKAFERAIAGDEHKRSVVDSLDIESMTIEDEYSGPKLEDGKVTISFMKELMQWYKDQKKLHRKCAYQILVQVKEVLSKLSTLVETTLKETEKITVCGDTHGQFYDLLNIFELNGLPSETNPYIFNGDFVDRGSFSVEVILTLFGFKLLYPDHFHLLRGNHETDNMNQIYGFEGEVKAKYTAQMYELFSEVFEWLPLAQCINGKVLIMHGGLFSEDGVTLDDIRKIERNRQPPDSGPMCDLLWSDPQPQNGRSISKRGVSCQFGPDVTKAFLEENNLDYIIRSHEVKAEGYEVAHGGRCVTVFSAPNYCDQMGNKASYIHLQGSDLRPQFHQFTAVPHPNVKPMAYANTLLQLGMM

IC50, inactive:
Oc1c(C(c2ccccn2)N2CCOCC2)cc(Cl)c2cccnc12 (stereo not drawn)
Oc1c(Cc2ccccn2)ccc2cccnc12
CN1CCN(C(c2ccccn2)c2ccc3cccnc3c2O)CC1 (stereo not drawn)
